Data as given in patent publication US4677110A, “N-benzoyl-N'-pyrimidinyloxyphenyl urea compounds, and antitumorous compositions containing them” (Ishihara Sangyo Kaisha Ltd., priority 1984, dated 1987).

What was measured:
p-388 leukemia cells [1] = experiment: Test Example 2: antitumour activity, intraperitoneal-oral, p-388 leukemia in BDF1 mice; format: in vivo; settings: one day and four days after i.p. inoculation, 30 days observation
Description: (intraperitoneal-oral) To BDF1 mice, p-388 leukemia cells were intraperitoneally inoculated in an amount of 1×10^6 cells/mouse. A test drug was orally administered twice i.e. one day and four days after the inoculation. […] The test drugs and comparative drugs were formulated in accordance with Formulation Example 4 given hereinafter. | Notes: MST^1 is as defined above.

p-388 leukemia cells [2] = experiment: Test Example 1: antitumour activity, intraperitoneal-intraperitoneal, p-388 leukemia in BDF1 mice; format: in vivo; settings: i.p., one day and four days after i.p. inoculation, 30 days observation
Experimental: (Intraperitoneal-intraperitoneal) To BDF1 mice, p-388 leukemia cells were intraperitoneally inoculated in an amount of 1×10^6 cells/mouse. A test drug was intraperitoneally administered twice, i.e. one day and four days after the inoculation. […] The ratio (%) of median survival time of test and control animals was obtained with the number of survival days of mice of the control group to which a physiological saline was administered, being evaluated as 100. The comparative drugs were dispersions obtained by adding small amounts of surfactants (e.g. Tween-80) to the comparative compounds. The drugs of the present invention were those prepared in accordance with Formulation Example 4 given hereinafter. | Note: MST^1 Ratio of median survival time of test and control animals

ddY mice = experiment: Acute toxicity, oral administration; format: in vivo; settings: 12.5 mg/kg oral, ddY mice (10 animals), Formulation Example 4
Experimental: (§1) To ddY mice (10 animals), a drug containing the Compound No. 1 or No. 2 of the present invention formulated in accordance with Formulation Example 4 was orally administered in an amount of the compound of 12.5 mg/kg, whereupon no mice died.

[3] = Acute toxicity, oral administration; format: in vivo; settings: mouse, in vivo; oral, ddY mice, Formulation Example 4
Experimental: as §1

[4] = Acute toxicity, intraperitoneal administration; settings: mouse, in vivo, ip, ddY mice, suspension with Tween-80
Experimental: as §1
On the other hand, a similar test was conducted by intraperitoneally administering a suspension obtained by adding a small amount of a surfactant (Tween-80) to the Compound No. 3 of the present invention, to the same mice, whereby the LD50 values were from 50 to 100 mg/kg.

In the case of O=C(NC(=O)c1ccccc1[N+](=O)[O-])Nc1ccc(Oc2ncc(I)cn2)c(Cl)c1 [Comparative Compound No. 1, N-(2 nitrobenzoyl)-N'-[3-chloro-4-(5-iodo-2-pyrimidinyloxy)phenyl]urea], the “T/C (%) of MST (ratio of median survival time of test and control animals)” value (p-388 leukemia cells [1]; 400 mg/kg/day) is reported as 116%, the “T/C (%) of MST (ratio of median survival time of test and control animals)” value (p-388 leukemia cells [1]; 800 mg/kg/day) is reported as 143% and the “T/C (%) of MST (ratio of median survival time of test and control animals)” value (p-388 leukemia cells [1]; 1600 mg/kg/day) is reported as 186%. For the same compound, the “T/C (%) of MST (ratio of median survival time of test and control animals)” value (p-388 leukemia cells [2]; 12.5 mg/kg/day) was 171% and the “T/C (%) of MST (ratio of median survival time of test and control animals)” value (p-388 leukemia cells [2]; 25 mg/kg/day) was 230%.

For O=C(NC(=O)c1ccccc1Cl)Nc1ccc(Oc2ncc(Cl)cn2)c(Cl)c1 [Comparative Compound No. 2, N-(2-chlorobenzoyl)-N'-[3-chloro-4-(5-chloro-2-pyrimidinyloxy)phenyl]urea], the “T/C (%) of MST (ratio of median survival time of test and control animals)” value (p-388 leukemia cells [2]; 200 mg/kg/day) was 183.9%.

For O=C(NC(=O)c1ccccc1Cl)Nc1ccc(Oc2ncc(I)cn2)c(Cl)c1 [Comparative Compound No. 3, N-(2-chlorobenzoyl)-N'-[3-chloro-4-(5-iodo-2-pyrimidinyloxy)phenyl]urea], the “T/C (%) of MST (ratio of median survival time of test and control animals)” value (p-388 leukemia cells [2]; 100 mg/kg/day) was 236.8%.

For O=C(NC(=O)c1ccccc1Br)Nc1ccc(Oc2ncc(I)cn2)c(Cl)c1 [Comparative Compound No. 4, N-(2-bromobenzoyl)-N'-[3-chloro-4-(5-iodo-2-pyrimidinyloxy)phenyl]urea], the “T/C (%) of MST (ratio of median survival time of test and control animals)” value (p-388 leukemia cells [2]; 100 mg/kg/day) was 165%.

With O=C(NC(=O)c1ccccc1[N+](=O)[O-])Nc1ccc(Oc2ncc(Br)cn2)c(C(F)(F)F)c1 [Compound No. 1, N-(N2-nitrobenzoyl)-N'-[4-(5-bromo-2-pyrimidinyloxy)-3-trifluoromethylphenyl]urea] the “T/C (%) of MST (ratio of median survival time of test and control animals)” value (p-388 leukemia cells [1]; 6.25 mg/kg/day) was 186%, the mortality (ddY mice) was “no mice died” and the LD50 [3] was ≥ 12.5 mg/kg. The “T/C (%) of MST (ratio of median survival time of test and control animals)” value (p-388 leukemia cells [2]; 3.125 mg/kg/day) was 153%.

With O=C(NC(=O)c1ccccc1[N+](=O)[O-])Nc1ccc(Oc2ncc(Cl)cn2)c(C(F)(F)F)c1 [Compound No. 2, N-(2-nitrobenzoyl)-N'-[4-(5-chloro2-pyrimidinyloxy)-3-trifluoromethylphenyl]urea] the “T/C (%) of MST (ratio of median survival time of test and control animals)” value (p-388 leukemia cells [1]; 6.25 mg/kg/day) was 167%, the mortality (ddY mice) was “no mice died” and the LD50 [3] was ≥ 12.5 mg/kg. The “T/C (%) of MST (ratio of median survival time of test and control animals)” value (p-388 leukemia cells [2]; 3.125 mg/kg/day) was 160%.

For O=C(NC(=O)c1ccccc1[N+](=O)[O-])Nc1ccc(Oc2ncc(I)cn2)c(C(F)(F)F)c1 [Compound No. 3, N-(2-nitrobenzoyl)-N'-[4-(5-iodo-2-pyrimidinyloxy)-3-trifluoromethylphenyl]urea], the LD50 [4] was 50 to 100 mg/kg.
